Reference: ChEMBL document CHEMBL1130623, “Novel cytokine release inhibitors. Part II: Steroids” (Bioorg Med Chem Lett, 1998)

How the values were obtained:
Homo sapiens [1] = species on record: Homo sapiens; assay: (§1) Compound was evaluated for inhibition of Interleukin (IL1-beta) release in human monocytes.; assay type: functional
Homo sapiens [2] = species on record: Homo sapiens; assay: Compound was evaluated for percentage inhibition of Interleukin (IL1-beta) release in human monocytes at a concentration of 1000 nM.; assay type: functional
Homo sapiens [3] = species on record: Homo sapiens; assay: Compound was evaluated for percentage inhibition of Interleukin (IL1-beta) release in human monocytes at a concentration of 3000 nM.; assay type: functional
[4] = as §1; assay type: functional, cell-based

Row | Compound | IC50 (Homo sapiens [1]) [nM] | inhibition at 1 µM (Homo sapiens [2]) [%] | further results
1 | CC(=O)Oc1cc2c(c(C)c1OC(C)=O)[C@H]1CC[C@]3(C)[C@@H](OC(C)=O)CC[C@H]3[C@@H]1C=C2 | 150 | – | –
2 | C[C@]12CC[C@@H]3c4ccc(O)cc4C=C[C@H]3[C@@H]1CCC2=O | – | 1 | –
3 | C[C@]12CC[C@H]3[C@@H](C=CC4=CC(=O)C(O)=C[C@@]43C)[C@@H]1CC[C@@H]2O | 3000 | – | –
4 | C[C@]12CC[C@H]3[C@@H](CCC4=CC(=O)C(O)=C[C@@]43C)[C@@H]1CC[C@@H]2O | – | – | inhibition at 3 µM (Homo sapiens [3]): 36%
5 | CC(=O)OC1=C[C@@]2(C)C(=CC1=O)C=C[C@H]1[C@@H]3CC[C@H](OC(C)=O)[C@@]3(C)CC[C@@H]12 | 3000 | – | –
6 | CC1=C(O)C(=O)C=C2C1=CC=C1[C@@]2(C)CC[C@@]2(C)[C@@H]3C[C@](C)(C(=O)O)CC[C@]3(C)CC[C@]12C [CELASTROL] | – | – | IC50 [4]: 40 nM
7 | C[C@]12CCc3c(ccc4cc(O)ccc34)[C@@H]1CCC2=O [EQUILENIN] | – | 27 | –
8 | C[C@]12CC[C@H]3C(=CCc4cc(O)ccc43)[C@@H]1CCC2=O [EQUILIN] | – | -11 | –
9 | COC(=O)[C@]1(C)CC[C@]2(C)CC[C@]3(C)C4=CCc5c(cc(OC(C)=O)c(OC(C)=O)c5C)[C@]4(C)CC[C@@]3(C)[C@@H]2C1 [PRISTIMEROL DIACETATE] | 80 | – | –
